The data set in a line: Pharmacokinetic study in minipigs after intravenous administration. It counts as in vivo. Particulars: female, Göttingen, minipig, plasma, i.v., 2 nmol/kg, harmonic mean, read-out: Terminal half-life (converted). From the text: The purpose of this investigation was to determine the in vivo half-life of the compounds of the invention after i.v. administration to minipigs using a pharmacokinetic (PK) study in Göttingen Minipigs assessing terminal half-life. The expression ‘terminal half-life’ as used herein, and means the time period required to reduce the plasma concentration by 50%, measured after the initial distribution phase.
Animals and housing: Female Göttingen Minipigs, weighing approximately 15-25 kg, were obtained from Ellegaard Minipigs, Dalmose Denmark. The minipigs were housed individually in the Animal Unit at BioAdvice A/S, ∅lstykke Denmark (later Minerva Imaging A/S) and were fed restrictedly twice daily with Altromin 9033 (Chr. Petersen A/S, Ringsted, Denmark). […]
Administration of peptides and dosing solutions: There were no food restrictions during the study and the animals had ad libitum access to water during the whole study period. […] The plasma samples were analysed as described below.
Quantitative Assay for Plasma Samples: The test compound was assayed in plasma by turbulent flow chromatography coupled to liquid chromatography mass spectrometric (LCMS) detection. The selectivity of the method allowed various test compounds to be quantitated in one sample, e.g. cassette dosing. […]

SMILES strings stand for the structures. Numbered stars: 1 amine (or outer) side, 2 acyl side, 3 side chain; on linkers, the order of the positions; unused ones are H or OH. Side chains are listed from the residue outwards. Peptide text beside a SMILES is read from it. * marks the point of attachment. C20 diacid = O=C(O)CCCCCCCCCCCCCCCCCCC(=O)*; γGlu = O=C(O)[C@H](CCC(=O)[*:2])N[*:1]; AEEA = NCCOCCOCC(=O)O

As to `CC[C@H](C)[C@H](NC(=O)[C@H](CCC(=O)O)NC(=O)[C@H](C)NC(=O)[C@H](CC(N)=O)NC(=O)[C@@H](NC(=O)[C@@H](NC(=O)[C@H](C)NC(=O)[C@H](CCC(N)=O)NC(=O)[C@H](CCC(=O)O)NC(=O)[C@H](CCCNC(=N)N)NC(=O)[C@H](C)NC(=O)[C@H](C)NC(=O)[C@H](CCCNC(=N)N)NC(=O)[C@H](C)NC(=O)[C@H](CCCNC(=N)N)NC(=O)[C@H](C)NC(=O)[C@H](CCC(N)=O)NC(=O)[C@H](CCC(=O)O)NC(=O)[C@H](CC(C)C)NC(=O)[C@H](CC(C)C)NC(=O)[C@@H](NC(=O)[C@H](CCC(N)=O)NC(=O)[C@H](CC(C)C)NC(=O)[C@H](CC(C)C)NC(=O)CNC(=O)[C@@H](NC(=O)[C@@H]1CCCN1C(=O)[C@@H](NC(=O)[C@H](CC(=O)O)NC(=O)[C@H](CC(C)C)NC(=O)[C@H](CO)NC(=O)[C@H](CC(C)C)NC(=O)[C@@H](NC(=O)[C@@H](NC(=O)[C@@H](N)CCCCNC(=O)COCCOCCNC(=O)COCCOCCNC(=O)CC[C@H](NC(=O)CC[C@H](NC(=O)CC[C@H](NC(=O)CCCCCCCCCCCCCCCCCCC(=O)O)C(=O)O)C(=O)O)C(=O)O)[C@@H](C)CC)C(C)C)C(C)C)[C@@H](C)CC)[C@@H](C)CC)[C@@H](C)O)[C@@H](C)O)C(=O)N[C@@H](CC(C)C)C(=O)N[C@@H](C)C(=O)N[C@@H](CCC(=O)O)C(=O)N[C@H](C(N)=O)C(C)C` [Compound 3] (H-K([AEEA-AEEA-γGlu-γGlu-γGlu-C20 diacid])IVLSLDVPIGLLQILLEQARARAAREQATTNAEILAEV-NH2), the half-life was 96 h.
In the case of `CC[C@H](C)[C@H](NC(=O)[C@H](CCC(=O)O)NC(=O)[C@H](C)NC(=O)[C@H](CC(N)=O)NC(=O)[C@@H](NC(=O)[C@@H](NC(=O)[C@H](C)NC(=O)[C@H](CCC(N)=O)NC(=O)[C@H](CCC(=O)O)NC(=O)[C@H](CCCNC(=N)N)NC(=O)[C@H](C)NC(=O)[C@H](C)NC(=O)[C@H](CCCNC(=N)N)NC(=O)[C@H](C)NC(=O)[C@H](CCCNC(=N)N)NC(=O)[C@H](C)NC(=O)[C@H](CCC(N)=O)NC(=O)[C@H](CCC(=O)O)NC(=O)[C@H](CC(C)C)NC(=O)[C@H](CC(C)C)NC(=O)[C@@H](NC(=O)[C@H](CCC(N)=O)NC(=O)[C@H](CC(C)C)NC(=O)[C@H](CC(C)C)NC(=O)CNC(=O)[C@@H](NC(=O)[C@@H]1CCCN1C(=O)[C@@H](NC(=O)[C@H](CC(=O)O)NC(=O)[C@H](CC(C)C)NC(=O)[C@H](CO)NC(=O)[C@H](CC(C)C)NC(=O)[C@@H](NC(=O)[C@@H](NC(=O)[C@@H](N)CCCCNC(=O)COCCOCCNC(=O)COCCOCCNC(=O)CC[C@H](NC(=O)CC[C@H](NC(=O)CC[C@H](NC(=O)CCCCCCCCCCCCCCCCCCC(=O)O)C(=O)O)C(=O)O)C(=O)O)[C@@H](C)CC)C(C)C)C(C)C)[C@@H](C)CC)[C@@H](C)CC)[C@@H](C)O)[C@@H](C)O)C(=O)N[C@@H](CC(C)C)C(=O)N[C@@H](CCC(=O)O)C(=O)N[C@@H](CCCNC(=N)N)C(=O)N[C@H](C(N)=O)C(C)C` [Compound 4] (H-K([AEEA-AEEA-γGlu-γGlu-γGlu-C20 diacid])IVLSLDVPIGLLQILLEQARARAAREQATTNAEILERV-NH2) it was 103 h.

A word on the half-life: it is how long it takes for the measured level to halve.

Source of the values: US20230233650A1, “NOVEL FATTY ACID MODIFIED UROCORTIN 2 DERIVATIVES AND THE USES THEREOF” (Novo Nordisk A/S, priority 2021, published 2023).
